Experimental data from US8828987B2, “Pyridine amide derivatives as EP4 receptor antagonists” (Rottapharm Biotech S.R.L., priority 2010, dated 2014).
Where two headings read alike, the source gives them in different places.

What was measured:
[1] = molecular target: T1, human EP4 receptor (Homo sapiens, UniProt P35408); experiment: [3H]-Prostaglandin E2 membrane binding assay (human EP4/HEK293 transfectant membranes); conditions: [3H]-PGE2 1 nM, hEP4/HEK293 membranes; Ki by Cheng-Prusoff; read-out: Binding pKi (converted)
T1 construct: expressed in transfected cells; membrane fraction used
T1 sequence (P35408 whole entry): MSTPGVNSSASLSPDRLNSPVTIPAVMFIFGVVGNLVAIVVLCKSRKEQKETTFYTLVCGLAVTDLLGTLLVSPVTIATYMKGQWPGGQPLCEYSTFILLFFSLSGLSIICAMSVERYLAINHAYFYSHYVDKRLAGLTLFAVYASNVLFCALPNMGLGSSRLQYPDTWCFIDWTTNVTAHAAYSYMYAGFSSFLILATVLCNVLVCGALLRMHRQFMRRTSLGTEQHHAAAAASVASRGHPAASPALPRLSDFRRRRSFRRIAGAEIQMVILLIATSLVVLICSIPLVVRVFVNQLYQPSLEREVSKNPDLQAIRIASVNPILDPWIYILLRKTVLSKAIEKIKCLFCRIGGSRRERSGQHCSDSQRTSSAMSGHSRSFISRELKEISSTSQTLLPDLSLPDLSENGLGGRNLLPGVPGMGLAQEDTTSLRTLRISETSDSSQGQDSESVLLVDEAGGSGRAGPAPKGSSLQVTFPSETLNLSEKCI
Source text: (§1) Stable Expression of Human EP4 Receptors in the Human Embryonic Kidney (HEK293) Cell Line
(§2) The cDNA clone of human EP4 receptor (NM_000958.2) was obtained from Invitrogen™: Ultimate™ ORF Clone Collection—Clone ID IOH46525. The coding sequence was subcloned in expression vector pcDNA™6.2/V5-DEST by Gateway technology (Invitrogen™).
(§3) Human embryonic kidney cells (HEK-293) were stably transfected with expression vector for human EP4 receptor in according to the method described in FuGENE®6 Transfection Reagent's manual (Roche Applied Science®).
(§4) Preparation of Membrane Fraction:
(§5) The EP4 transfected cells were grown in Dulbecco's modified Eagle's medium containing 10% fetal bovine serum and 10 μg/ml Blasticidin S HCl (selection medium) at 37° C. in a humidified atmosphere of 5% CO2 in air.
(§6) For the membrane preparation, cells in flask were harvested by hypotonical/mechanical lysis with chilled (4° C.) TE buffer (5 mM TRIS, 5 mM etylenediamine tetra-acetic acid (EDTA), pH 7.4).
(§7) Cells were detached and lysed with 10 ml of hypotonic lysis buffer and by scraping. The cell lysate was vortexed for 30 sec and centrifuged at 40000×g at 4° C. for 22 min.
a) Membrane Binding Assay[3H]-Prostaglandin E2
The membrane pellet was resuspended in the same buffer (5 mM TRIS, 5 mM ethylenediamine tetra-acetic acid (EDTA), pH 7.4), and protein concentration was determined by Bradford method (Bio-Bad® assay).
This membrane preparation was stored at −80° C. freezer until use for binding assay.
([^3H]-PGE2) membranes binding assays toward hEP4 receptors (human EP4/HEK293 transfectant, see above) and hEP2 receptors (human EP2/HEK293 transfectant, purchased from PerkinElmer Inc) were performed in 10 mM MES-KOH buffer pH6, containing 10 mM MgCl2 and 1 mM CaCl2 for EP4 binding assay or 50 mM Tris-Cl, BSA 0.5% for EP2 binding assay (according to supplier indication).
Ten microgram of protein from membrane fractions were incubated in a total volume of 0.1 ml (EP4) or 0.2 ml (EP2) with 1 nM (EP4) or 3 nM (EP2) [^3H]-PGE2 (PerkinElmer Inc, 171 Ci/mmol). In both assays to determine the total binding or non specific binding, 1% DMSO or 1 μM prostaglandin E2 (EP4) or 100 μM (EP2) were added to reaction mixtures, respectively. Incubation was conducted in a polypropylene 96 multiwell for 90 min (EP4) or 60 min (EP2) at room temperature prior to separation of the bound and free radioligand by vacuum manifold rapid filtration on glass fiber filters (Unifilter GFB96, PerkinElmer Inc) pre-soaked in 0.3% polyethyleneimine. Filters were washed with ice cold buffer pH 7.4 (50 mM HEPES, NaCl 500 mM, BSA 0.1% for EP4 binding assay or 50 mM Tris-Cl for EP2 binding assays) and the residual [^3H]-PGE2 binding determined by solid scintillation counter (TopCount, PerkinElmer Inc).
The affinity (Ki) of each compound was calculated according to the Cheng-Prousoff equation: Ki=IC50/(1+([C]/Kd)). Results were expressed as pKi (−log 10 Ki (M)
Compounds of example 1 to 82 were tested according to method of example 83a in a final concentration range from 1 nM to 1 μM.

[2] = molecular target: T1, human EP4 receptor; experiment: cAMP assay (AlphaScreen) on human EP4 membrane of transfected cells, antagonism of PGE2; format: biochemical; conditions: HEK293 hEP4 cell membrane stimulated with PGE2 3 nM; read-out: functional IC50
Source text: as §1, §2, §3, §4, §5, §6, §7
b) cAMP Assay on Human EP4 Membrane of Transfected Cells.
The assay is based on the competition between endogenous cAMP and exogenously added biotinylated cAMP. The capture of cAMP is achieved by using a specific antibody conjugated to […] beads.
Cell membranes prepared as described above, were resuspended in 1 ml stimulation buffer (HBSS 1×+BSA 0.1%+IBMX 0.5 mM+HEPES 5 mM+MgCl2 10 mM+GTP 1 nM+GDP 10 μM+ATP 100 μM−pH 7.4). Cell membranes were dispensed into white 384-well microplates at final concentration of 1 μg/well and used for the determination of cAMP with the alphascreen cAMP functional assay (EnVision—PerkinElmer). Cell membrane/anti-cAMP Acceptor beads mix (5 μl) and a mixture of analysed compounds (dissolved in 100% DMSO to a final maximal concentration of 0.01% DMSO)/PGE2 (5 μl) were incubated at room temperature (22-23° C.) for 30 min in the dark. The Biotinylated-cAMP and donor beads (15 μl) were dispensed into each well to start the competition reaction. After 1 h incubation RT (22-23° C.) in the dark the plate was read using EnVision platform to determine the cAMP level (excitation: 680 nm; emission: 520,620 nm).
cAMP standard curve (concentration range from 1×10-6 to 1×10-11 M in. log intervals) with a negative control (no cAMP) a positive control:forskolin 10 μM
Antagonism studies were performed stimulating HEK293 cell membrane with PGE2 3 nM. The AlphaScreen signal is plotted as a function of log concentration of cAMP and functional IC50 is determined. IC50 value is calculated by linear regression.
Some compounds were tested according to method of example 83b.

[3] = Pharmacokinetics in male Han Wistar rats, intravenous and oral; format: in vivo; conditions: rat; for AUC(0-inf) / AUC(0-t) / clearance / Vd / half-life / Cmax / Tmax / bioavailability: male, Han Wistar, plasma; for clearance: read-out: CLp* (converted); for Vd: read-out: Vss*; for half-life: read-out: t½* (converted); for bioavailability: po
Procedure: Determination of PK of the Invention Compounds
The pharmacokinetics of compounds E10, E16, E34, E38, E51, were studied in male Han Wistar rats. The rats were treated intravenously and orally (n=3 for each dose route) with a compounds formulated as solutions. The rats were fitted with a jugular cannula for serial sampling. A full profile was acquired for each rat. Plasma extracts were quantitatively analyzed using a specific and sensitive LC-MS/MS bioanalytical method. Inter-individual variations between the three rats in each group were limited (CV for pharmacokinetic parameters was below 50%).

[4] = 1 mg/kg, PO, 1.0 mg/kg, read-out: F %

O=C(O)c1ccc(C2(NC(=O)c3cc(Cl)cnc3N3CC(Oc4cccc(F)c4)C3)CC2)cc1 [E 16, 4-(1-(5-chloro-2-(3-(3-fluorophenoxy)azetidin-1-yl)nicotinamido)cyclopropyl)benzoic acid]
Ki [1]: 3.16 nM
IC50 [2]: 40 nM
AUC(0-inf) ([3]; IV, 2.0 mg/kg): 3330 ng·h/mL
AUC(0-t) ([3]; IV, 2.0 mg/kg): 3290 ng·h/mL
clearance ([3]; IV, 2.0 mg/kg): 2.67 mL/min
Vd ([3]; IV, 2.0 mg/kg): 0.394 L
half-life ([3]; IV, 2.0 mg/kg): 5.62 h
AUC(0-inf) ([3]; PO, 2.0 mg/kg): 3000 ng·h/mL
AUC(0-t) ([3]; PO, 2.0 mg/kg): 2990 ng·h/mL
Cmax ([3]; PO, 2.0 mg/kg): 1800 ng/mL
Tmax ([3]; PO, 2.0 mg/kg): 0.25 h
half-life ([3]; PO, 2.0 mg/kg): 3.12 h
bioavailability ([3]; 2 mg/kg, PO, 2.0 mg/kg, read-out: F %): 91%
bioavailability ([3]; 2 mg/kg, after oral administration, read-out: absolute oral bioavailability F): 90%
Tlast ([3]; IV, 2.0 mg/kg): 24 h
Tlast ([3]; PO, 2.0 mg/kg): 24 h

Cc1cc(F)ccc1NC1CN(c2ncc(Cl)cc2C(=O)NC2(c3ccc(C(=O)O)cc3)CC2)C1 [E 34, 4-(1-(5-chloro-2-(3-((4-fluoro-2-methylphenyl)amino)azetidin-1-yl)nicotinamido)cyclopropyl)benzoic acid]
Ki [1]: 3.16 nM
IC50 [2]: 43 nM
AUC(0-inf) ([3]; IV, 1.0 mg/kg): 302 ng·h/mL
AUC(0-t) ([3]; IV, 1.0 mg/kg): 300 ng·h/mL
clearance ([3]; IV, 1.0 mg/kg): 14.4 mL/min
Vd ([3]; IV, 1.0 mg/kg): 0.227 L
half-life ([3]; IV, 1.0 mg/kg): 0.34 h
AUC(0-inf) ([3]; PO, 1.0 mg/kg): 128 ng·h/mL
AUC(0-t) ([3]; PO, 1.0 mg/kg): 125 ng·h/mL
Cmax ([3]; PO, 1.0 mg/kg): 98.1 ng/mL
Tmax ([3]; PO, 1.0 mg/kg): 0.25 h
half-life ([3]; PO, 1.0 mg/kg): 1.16 h
bioavailability [3, 4]: 42%
Tlast ([3]; IV, 1.0 mg/kg): 2 h
Tlast ([3]; PO, 1.0 mg/kg): 6 h

O=C(O)c1ccc(C2(NC(=O)c3cc(C(F)(F)F)cnc3N3CC(Oc4cccc(F)c4)C3)CC2)cc1 [E 38, 4-(1-(2-(3-(3-fluorophenoxy)azetidin-1-yl)-5-(trifluoromethyl)nicotinamido)cyclopropyl)benzoic acid]
Ki [1]: 12.6 nM
IC50 [2]: 19.3 nM
AUC(0-inf) ([3]; IV, 1.0 mg/kg): 832 ng·h/mL
AUC(0-t) ([3]; IV, 1.0 mg/kg): 816 ng·h/mL
clearance ([3]; IV, 1.0 mg/kg): 5.68 mL/min
Vd ([3]; IV, 1.0 mg/kg): 1.07 L
half-life ([3]; IV, 1.0 mg/kg): 5.9 h
AUC(0-inf) ([3]; PO, 1.0 mg/kg): 598 ng·h/mL
AUC(0-t) ([3]; PO, 1.0 mg/kg): 551 ng·h/mL
Cmax ([3]; PO, 1.0 mg/kg): 374 ng/mL
Tmax ([3]; PO, 1.0 mg/kg): 0.25 h
half-life ([3]; PO, 1.0 mg/kg): 2.59 h
bioavailability [3, 4]: 59%
Tlast ([3]; IV, 1.0 mg/kg): 24 h
Tlast ([3]; PO, 1.0 mg/kg): 6 h

O=C(NC1(c2ccc(-c3nnn[nH]3)cc2)CC1)c1cc(Cl)cnc1N1CC(Oc2cccc(F)c2)C1 [E 82, N-(1-(4-(1H-tetrazol-5-yl)phenyl)cyclopropyl)-5-chloro-2-(3-(3-fluorophenoxy)azetidin-1-yl)nicotinamide]
Ki [1]: 5.01 nM
IC50 [2]: 27 nM

O=C(O)c1ccc(C2(NC(=O)c3cc(Cl)cnc3N3CC(Oc4cccc(OC(F)(F)F)c4)C3)CC2)cc1 [E 18, 4-(1-(5-chloro-2-(3-(3-(trifluoromethoxy)phenoxy)azetidin-1-yl)nicotinamido)cyclopropyl)benzoic acid]
Ki [1]: 12.6 nM
IC50 [2]: 22 nM

O=C(O)c1ccc(C2(NC(=O)c3cc(Cl)cnc3N3CCC(COc4cccc(F)c4)C3)CC2)cc1 (stereo not shown) [E 76, 4-(1-(5-chloro-2-(3-((3-fluorophenoxy)methyl)pyrrolidin-1-yl)nicotinamido)cyclopropyl)benzoic acid]
Ki [1]: 31.6 nM
IC50 [2]: 24 nM

O=C(O)c1ccc(C2(NC(=O)c3cc(Cl)cnc3N3CC(C(=O)c4cccc(F)c4)C3)CC2)cc1 [E 25, 4-(1-(5-chloro-2-(3-(3-fluorobenzoyl)azetidin-1-yl)nicotinamido)cyclopropyl)benzoic acid]
Ki [1]: 63.1 nM
IC50 [2]: 135 nM

O=C(O)c1ccc(C2(NC(=O)c3cc(C(F)(F)F)cnc3N3CC(Oc4cccc(OC(F)(F)F)c4)C3)CC2)cc1 [E 43, 4-(1-(2-(3-(3-(trifluoromethoxy)phenoxy)azetidin-1-yl)-5-(trifluoromethyl)nicotinamido)cyclopropyl)benzoic acid]
Ki [1]: 3.16 nM
IC50 [2]: 38 nM

O=C(O)c1ccc(C2(NC(=O)c3cc(Cl)cnc3N3CCC(Oc4ccccc4)C3)CC2)cc1 (single isomer, unassigned) [E 62]
Ki [1]: 25.1 nM
IC50 [2]: 46 nM

O=C(O)c1ccc(C2(NC(=O)c3cc(Cl)cnc3N3CCC(Oc4cccc(F)c4)C3)CC2)cc1 (single isomer, unassigned) [E 71, 4-(1-(5-chloro-2-(3-(3-fluorophenoxy)pyrrolidin-1-yl)nicotinamido)cyclopropyl)benzoic acid]
Ki [1]: 39.8 nM
IC50 [2]: 110 nM

O=C(O)c1ccc(CNC(=O)c2cc(Cl)cnc2N2CC(Oc3cccc(F)c3)C2)cc1 [E 22, 4-((5-chloro-2-(3-(3-fluorophenoxy)azetidin-1-yl)nicotinamido)methyl)benzoic acid]
Ki [1]: 31.6 nM
IC50 [2]: 119 nM

O=C(O)c1ccc(C2(NC(=O)c3cc(Cl)cnc3N3CC(Oc4ccc(F)cc4F)C3)CC2)cc1 [E 19, 4-(1-(5-chloro-2-(3-(2,4-difluorophenoxy)azetidin-1-yl)nicotinamido)cyclopropyl)benzoic acid]
Ki [1]: 50.1 nM
IC50 [2]: 87 nM
